Measured values as given in article PMC11566078, “Bactericidal activities and biochemical features of 16 antimicrobial peptides against bovine-mastitis causative pathogens” (Veterinary Research, 2024).
≈ marks a conversion by molar mass, not a printed value. Where two headings read alike, the source gives them in different places.

Key:
Format in all cases: cell-based
[1] = tested on: Staphylococcus haemolyticus; assay: MIC against field isolate from milk with high SCC; settings: Staphylococcus haemolyticus, read-out: Minimal inhibitory concentration, Staphylococcus haemolyticus
Protocol: (§1) All plates were cultivated aerobically.
(§2) Experiments were conducted in triplicate.

[2] = tested on: Staphylococcus epidermidis; assay: microbe, parasite or virus in culture; settings: Staphylococcus epidermidis; field isolate from milk; WST colourimetric, 37 °C 6 h; triplicate; read-out: Minimal inhibitory concentration, Staphylococcus epidermidis
Protocol: as §1, §2

[3] = tested on: Corynebacterium simulans; assay: microbe, parasite or virus in culture; settings: Corynebacterium simulans; field isolate from milk; BHI broth; WST colourimetric, 37 °C 6 h; triplicate; read-out: Minimal inhibitory concentration, Corynebacterium simulans
Protocol: as §1, §2

[4] = tested on: Streptococcus uberis; assay: microbe, parasite or virus in culture; settings: Streptococcus uberis; field isolate from milk; BHI broth; WST colourimetric, 37 °C 6 h; triplicate; read-out: Minimal inhibitory concentration, Streptococcus uberis
Protocol: as §1, §2

[5] = tested on: Staphylococcus chromogenes; assay: microbe, parasite or virus in culture; settings: Staphylococcus chromogenes, read-out: Minimal inhibitory concentration, Staphylococcus chromogenes
Protocol: as §1, §2

[6] = tested on: Staphylococcus xylosus; assay: microbe, parasite or virus in culture; settings: Staphylococcus xylosus, read-out: Minimal inhibitory concentration, Staphylococcus xylosus
Protocol: as §1, §2

[7] = tested on: Glutamicibacter halophytocola; assay: microbe, parasite or virus in culture; settings: Glutamicibacter halophytocola; field isolate from milk; BHI broth; WST colourimetric, 37 °C 6 h; triplicate; read-out: Minimal inhibitory concentration, Glutamicibacter halophytocola
Protocol: as §1, §2

[8] = tested on: Aeromonas hydrophila; assay: microbe, parasite or virus in culture; settings: Aeromonas hydrophila; Gram-negative field isolate from milk; BHI broth; WST colourimetric, 37 °C 6 h; triplicate; read-out: Minimal inhibitory concentration, Aeromonas hydrophila
Protocol: as §1, §2

[9] = tested on: Enterococcus faecalis ATCC 29212; assay: microbe, parasite or virus in culture; settings: Enterococcus faecalis, ATCC29212; ATCC 29212; BHI broth; WST colourimetric, 37 °C 6 h; triplicate; read-out: Minimal inhibitory concentration, Enterococcus faecalis
Protocol: (§3) The standard bacterial strains used for antimicrobial activity assays include Staphylococcus aureus ATCC (American Type Culture Collection, Manassas, VA, USA) 6538, Bacillus cereus ATCC 10876, Enterococcus faecalis ATCC 29212, Streptococcus […] 27956, Streptococcus dysgalactiae ATCC 27957, Streptococcus equi subsp. zooepidemicus ATCC 43079, Escherichia coli ATCC 25922, and Pseudomonas aeruginosa ATCC 27853. Most bacterial strains were cultured in LB medium except for E. faecalis and streptococci, which were cultivated in brain heart infusion (BHI) broth (BD Bioscience). […] Experiments were conducted in triplicate.

[10] = tested on: Streptococcus agalactiae ATCC 27956; assay: microbe, parasite or virus in culture; settings: Streptococcus agalactiae, ATCC27956; ATCC 27956; BHI broth; WST colourimetric, 37 °C 6 h; triplicate; read-out: Minimal inhibitory concentration, Streptococcus agalactiae
Protocol: as §3

[11] = tested on: Pseudomonas aeruginosa ATCC 27853; assay: microbe, parasite or virus in culture; settings: Pseudomonas aeruginosa, ATCC27853; ATCC 27853; CAMHB; WST colourimetric, 37 °C 6 h; triplicate; read-out: Minimal inhibitory concentration, Pseudomonas aeruginosa
Protocol: as §3

[12] = tested on: Escherichia coli ATCC 25922; assay: microbe, parasite or virus in culture; settings: Escherichia coli, ATCC25922, 8 h, MH broth, WST colourimetric, 1.5 × 10^5 cells/well, 37 °C 6 h + 2 h reagent, A450, triplicate, read-out: Minimal inhibitory concentration, Escherichia coli
Protocol: as §3

[13] = tested on: Bacillus cereus ATCC 10876; assay: microbe, parasite or virus in culture; settings: Bacillus cereus, ATCC10876; ATCC 10876; MH broth; WST colourimetric, 37 °C 6 h; triplicate; read-out: Minimal inhibitory concentration, Bacillus cereus
Protocol: as §3

[14] = tested on: Streptococcus equi subsp. zooepidemicus ATCC 43079; assay: microbe, parasite or virus in culture; settings: Streptococcus equi, ATCC43079; ATCC 43079; BHI broth; WST colourimetric, 37 °C 6 h; triplicate; read-out: Minimal inhibitory concentration, Streptococcus equi subsp. zooepidemicus
Protocol: as §3

[15] = tested on: Staphylococcus aureus ATCC 6538; assay: microbe, parasite or virus in culture; settings: Staphylococcus aureus, ATCC6538; ATCC 6538; MH broth; WST colourimetric, 37 °C 6 h; triplicate; read-out: Minimal inhibitory concentration, Staphylococcus aureus
Protocol: as §3

[16] = tested on: Streptococcus dysgalactiae ATCC 27957; assay: microbe, parasite or virus in culture; settings: Streptococcus dysgalactiae, ATCC27957; ATCC 27957; BHI broth; WST colourimetric, 37 °C 6 h; triplicate; read-out: Minimal inhibitory concentration, Streptococcus dysgalactiae
Protocol: as §3

[17] = field isolate from milk, WST colourimetric, 37 °C 6 h, triplicate
[18] = value in brackets, Additional file 6, field isolate

| Compound | MIC [1, 17] | MIC [1, 18] | MIC [2] | MIC [3] | MIC [4] | MIC [5, 17] | MIC [5, 18] | MIC [6, 17] | MIC [6, 18] | MIC [7] | MIC [8] | MIC [9] | MIC [10] | MIC [11] | MIC [12] | MIC [13] | MIC [14] | MIC [15] | MIC [16] |
| --- | --- | --- | --- | --- | --- | --- | --- | --- | --- | --- | --- | --- | --- | --- | --- | --- | --- | --- | --- |
| CC1(C)S[C@@H]2[C@H](NC(=O)[C@H](N)c3ccccc3)C(=O)N2[C@H]1C(=O)O [Ampicillin, reference compound] | 10 mg/L | 0.0286 µM | 5 mg/L (≈ 14.3 µM) | > 240 mg/L | > 240 mg/L | 5 mg/L | 0.0143 µM | 5 mg/L | 0.0143 µM | 15 mg/L (≈ 42.9 µM) | > 240 mg/L | 10 mg/L (≈ 28.6 µM) | 4 mg/L (≈ 11.4 µM) | > 640 mg/L | 5 mg/L | 80 mg/L (≈ 229 µM) | 2 mg/L (≈ 5.72 µM) | 2 mg/L (≈ 5.72 µM) | 2 mg/L (≈ 5.72 µM) |
| O=C(N[C@H](CO)[C@H](O)c1ccc([N+](=O)[O-])cc1)C(Cl)Cl [Chloramphenicol, reference compound] | 10 mg/L | 0.031 µM | 5 mg/L (≈ 15.5 µM) | 8 mg/L (≈ 24.8 µM) | 50 mg/L (≈ 155 µM) | 18 mg/L | 0.0558 µM | 8 mg/L | 0.0248 µM | 3 mg/L (≈ 9.28 µM) | 5 mg/L (≈ 15.5 µM) | 10 mg/L (≈ 30.9 µM) | 5 mg/L (≈ 15.5 µM) | 80 mg/L (≈ 248 µM) | 3 mg/L | 10 mg/L (≈ 30.9 µM) | 5 mg/L (≈ 15.5 µM) | 8 mg/L (≈ 24.8 µM) | 4 mg/L (≈ 12.4 µM) |
